US20240376094A2, “SELECTIVE BCL-XL PROTAC COMPOUNDS AND METHODS OF USE” (Les Laboratoires Servier, priority 2021, published 2024)

Key:
Assay type in all cases: cell-based
[1] = tested on: NCI-H1650; assay: CellTiter-Glo 3D proliferation assay, NCI-H1650 spheroids; settings: Homo sapiens, NCI-H1650, 120 h, 5 days
Protocol: (§1) The BCL-xL degrader compounds were tested against two endogenous cancer cell lines: • COR-L105: ECACC No. 92031918 cultured in RPMI-1640+10% FBS • NCI-H1650: (ATCC No. CRL-5883 cultured in RPMI-1640+10% FBS
(§2) The ability of the BCL-xL degrader low molecular weight compounds to inhibit cell proliferation and survival was assessed using the Promega CellTiter-Glo® proliferation assay.
(§3) Cell lines were cultured in media that is optimal for their growth at 5% CO2, 37° C. in a tissue culture incubator. Prior to seeding for the proliferation assay, the cells were split at least 2 days before the assay to ensure optimal growth density. On the day of seeding, adherent cells were lifted off tissue culture flasks using 0.25% trypsin. Cell viability and cell density were determined using a cell counter (Vi-Cell XR Cell Viability Analyzer, Beckman Coulter). Cells with higher than 85% viability were seeded for the assay.
(§4) The COR-105 cell line was seeded in white, clear bottom 384-well TC treated plates (Corning cat. #3765). Cells were seeded at a density of 1,000 cells per well in 45 μL of standard growth media. Plates were incubated at 5% CO2, 37° C. overnight in a tissue culture incubator. The NCI-H1650 cell line was seeded in black, clear round bottom 384-well ultra-low attachment spheroid microplates (Corning cat. #3830). Cells were seeded at a density of 3,000 cells per well in 45 uL of standard growth media. Plates were spun in a centrifuge for 5 minutes and 1,000 RPM. Plates were incubated at 5% CO2, 37° C. for 72 hours in a tissue culture incubator.
(§5) On the day of dosing, BCL-xL degrader low molecular weight compounds were prepared at 1 OX in standard growth media. The prepared drug treatments were then added to the cells resulting in final concentrations of 0.508 nM-10 μM and a final volume of 50 μL per well. Each drug concentration was tested in quadruplets. Plates were incubated at 5% CO2, 37° C. for 5 days in a tissue culture incubator.
(§6) For COR-L105 plates, cell viability was assessed through the addition of 25 μL of CellTiter Glo® (Promega, cat #G7573), a reagent which lyses cells and measures total adenosine triphosphate (ATP) content. Plates were incubated at room temperature for 10 minutes to stabilize luminescent signals prior to reading with a luminescence reader (EnVision Multilabel Plate Reader, PerkinElmer). For NCI-H1650 plates, cell viability was assessed through the addition of 40 μL of CellTiter Glo® 3D Cell Viability Assay substrate (Promega, cat #G9681), a reagent which lyses cells and measures total adenosine triphosphate (ATP) content. Wells were mixed thoroughly and plates were incubated at room temperature for 30 minutes to stabilize luminescent signals prior to reading using a luminescence reader (EnVision Multilabel Plate Reader, PerkinElmer).
(§7) To evaluate the effect of the drug treatments, luminescent counts from wells containing untreated cells (100% viability) were used to normalize treated samples. A variable slope model was applied to fit a nonlinear regression curve to the data in GraphPad PRISM version 7.02 software. IC50 and Amax values were extrapolated from the resultant curves. The concentrations of treatment required to inhibit 50% of cell growth or survival (IC50) were calculated with representative IC50 values of the cell lines tested summarized in Table 11.

[2] = biological target: T1, Bcl-xL (Homo sapiens, UniProt Q07817); assay: HCT116 Bcl-xL degradation, capillary-based immunoassay (WES); settings: for DC50: HCT116, 24 h, 9-point serial dilution
T1 construct: Measured levels of Bcl-xL protein of HCT116 cells treated with the tested compounds; host or cells: HCT116
T1 sequence (Q07817 whole entry): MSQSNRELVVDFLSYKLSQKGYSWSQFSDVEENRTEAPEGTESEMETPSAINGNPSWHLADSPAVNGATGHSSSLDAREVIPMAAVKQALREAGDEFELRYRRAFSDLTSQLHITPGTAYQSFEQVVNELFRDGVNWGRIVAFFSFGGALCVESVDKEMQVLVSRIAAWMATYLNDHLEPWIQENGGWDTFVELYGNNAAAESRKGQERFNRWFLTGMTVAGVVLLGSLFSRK
Outline: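 HCT116 cells treated 24 h with compound at 10/100 nM and/or 9-point dilution (quadruplicates), then lysed. Bcl-xL measured by capillary WES immunoassay, normalized to cofilin and expressed as % of untreated cells. DC50 from four-parameter curve fit.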

[3] = tested on: MOLT-4 cells; assay: MOLT-4 cell viability, MTT assay; settings: Homo sapiens, MOLT-4, 48 h
Outline: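 MOLT-4 cells in RPMI 1640 with 10% FBS were exposed to compounds for 48 h at 9 concentrations (3.16-fold dilutions, triplicates). After 4 h with MTT and overnight SDS/HCl solubilisation, absorbance was read at 540 nm. IC50 came from four-parameter fits versus control, as the mean of ≥2 independent experiments.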

[4] = tested on: COR-L105; assay: CellTiter-Glo proliferation assay, COR-L105; settings: Homo sapiens, COR-L105, 120 h, COR-L105, 5 days
Protocol: as §1, §2, §3, §4, §5, §6, §7

[5] = tested on: EBC-1 lung cancer cell line; assay: EBC-1 cell proliferation, CellTiter-Glo assay; settings: Homo sapiens, 120 h; Ebc-1 cell viability, CTG assay, 5 days of treatment; read-out: CTG 5 day Ebc1 GI50
Outline: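 EBC-1 cells seeded at 1000 per well overnight, then exposed to 10-point dilutions (0.508 nM–10 μM final) for 5 days at 37 °C, in triplicate. ATP luminescence by CellTiter-Glo, normalised to untreated wells; GI50 from four-parameter logistic fit, runs valid only with at least one doubling.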

[6] = biological target: T2, HiBiT-tagged BCL-xL (Homo sapiens, UniProt Q07817); assay: NCI-H1650 BCL-xL protein levels, Nano-Glo HiBiT Lytic Detection; settings: NCI-H1650 expressing HiBiT-tagged BCL-xL, overnight incubation, read-out: Bcl-xl HIBIT NCIH1650 DC50
T2 construct: expressed in transfected cells; host or cells: NCI-H1650 (ATCC No. CRL-5883), engineered HiBiT cell line
T2 sequence (Q07817 whole entry): as above
Outline: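 NCI-H1650 cells expressing HiBiT-tagged BCL-xL (5000/well) were treated overnight at 37° C with 10 concentrations, final 0.508 nM-10 μM, in triplicate. Remaining BCL-xL measured by Nano-Glo HiBiT lytic luminescence, normalized to untreated cells; 50% values by four-parameter logistic fit.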

SMILES	IC50 [1] [nM]	DC50 [2] [nM]	remaining activity at 0.01 µM ([2]; HCT-116, HCT116, 10 nM, 24 h, % of untreated cells) [%]	remaining activity at 0.1 µM ([2]; HCT-116, HCT116, 100 nM, 24 h, % of untreated cells) [%]	IC50 [3] [nM]	GI50 [5] [nM]	DC50 [6] [nM]	Emax ([1]; read-out: NCI-H1650 Span (Amax)) [%]	IC50 [4] [nM]	Emax ([4]; read-out: COR-L105 Span (max)) [%]
Cc1ncsc1-c1ccc(CNC(=O)C2C[C@@H](O)CN2C(=O)C(NC(=O)CCCCCC(=O)N2CCN(CCOC34CC5(C)CC(C)(CC(Cn6ncc(-c7ccc(N8CCCc9c8nnc(Nc8nc%10ccccc%10s8)c9C)nc7C(=O)O)c6C)(C5)C3)C4)CC2)C(C)(C)C)cc1 (stereo in doubt) [Example 22, 6-[3-(1,3-benzothiazol-2-ylamino)-4-methyl-6,7-dihydro-5H-pyrido[2,3-c]pyridazin-8-yl]-3-[1-[[3-[2-[4-[7-[[(1S)-1-[(2S,4R)-4-hydroxy-2-[[4-(4-methylthiazol-5-yl)phenyl]methylcarbamoyl]pyrrolidine-1-carbonyl]-2,2-dimethyl-propyl]amino]-7-oxo-heptanoyl]piperazin-1-yl]ethoxy]-5,7-dimethyl-1-adamantyl]methyl]-5-methyl-pyrazol-4-yl]pyridine-2-carboxylic acid]	72.8	> 316	68	54	4.7	–	–	92.6	275	104
Cc1ncsc1-c1ccc([C@H](C)NC(=O)[C@@H]2C[C@@H](O)CN2C(=O)[C@@H](NC(=O)CCCCCCCCCCN(C)CCOC23CC4(C)CC(C)(CC(Cn5ncc(-c6ccc(N7CCCc8c7nnc(Nc7nc9ccccc9s7)c8C)nc6C(=O)O)c5C)(C4)C2)C3)C(C)(C)C)cc1 [Example 135, 6-[3-(1,3-benzothiazol-2-ylamino)-4-methyl-6,7-dihydro-5H-pyrido[2,3-c]pyridazin-8-yl]-3-[1-[[3-[2-[[11-[[(1S)-1-[(2S,4R)-4-hydroxy-2-[[(1S)-1-[4-(4-methylthiazol-5-yl)phenyl]ethyl]carbamoyl]pyrrolidine-1-carbonyl]-2,2-dimethyl-propyl]amino]-11-oxo-undecyl]-methyl-amino]ethoxy]-5,7-dimethyl-1-adamantyl]methyl]-5-methyl-pyrazol-4-yl]pyridine-2-carboxylic acid]	–	0.978	–	–	3.51	4	1	–	–	–
Cc1ncsc1-c1ccc([C@H](C)NC(=O)[C@@H]2C[C@@H](O)CN2C(=O)[C@@H](NC(=O)CCCCCCCCCCCCN(C)CCOC23CC4(C)CC(C)(CC(Cn5ncc(-c6ccc(N7CCCc8c7nnc(Nc7nc9ccccc9s7)c8C)nc6C(=O)O)c5C)(C4)C2)C3)C(C)(C)C)cc1 [Example 136, 6-[3-(1,3-benzothiazol-2-ylamino)-4-methyl-6,7-dihydro-5H-pyrido[2,3-c]pyridazin-8-yl]-3-[1-[[3-[2-[[13-[[(1S)-1-[(2S,4R)-4-hydroxy-2-[[(1S)-1-[4-(4-methylthiazol-5-yl)phenyl]ethyl]carbamoyl]pyrrolidine-1-carbonyl]-2,2-dimethyl-propyl]amino]-13-oxo-tridecyl]-methyl-amino]ethoxy]-5,7-dimethyl-1-adamantyl]methyl]-5-methyl-pyrazol-4-yl]pyridine-2-carboxylic acid]	–	2.71	–	–	1.45	1	1	–	–	–
Cc1cc(N(CCCCCn2cc(CCCCCCCCC(=O)N[C@H](C(=O)N3C[C@H](O)C[C@H]3C(=O)NCc3ccc(-c4scnc4C)cc3)C(C)(C)C)nn2)c2ccc(-c3cnn(CC45CC6(C)CC(C)(C4)CC(OCCN(C)C)(C6)C5)c3C)c(C(=O)O)n2)nnc1Nc1nc2ccccc2s1 [Example 152, 6-[[6-(1,3-benzothiazol-2-ylamino)-5-methyl-pyridazin-3-yl]-[5-[4-[9-[[(1S)-1-[(2S,4R)-4-hydroxy-2-[[4-(4-methylthiazol-5-yl)phenyl]methylcarbamoyl]pyrrolidine-1-carbonyl]-2,2-dimethyl-propyl]amino]-9-oxo-nonyl]triazol-1-yl]pentyl]amino]-3-[1-[[3-[2-(dimethylamino)ethoxy]-5,7-dimethyl-1-adamantyl]methyl]-5-methyl-pyrazol-4-yl]pyridine-2-carboxylic acid]	–	11.4	–	–	82.1	121	> 1670	–	–	–

Now from value to compound, other results behind:

IC50 [1] [nM]	DC50 [2] [nM]	remaining activity at 0.01 µM ([2]; HCT-116, HCT116, 10 nM, 24 h, % of untreated cells) [%]	remaining activity at 0.1 µM ([2]; HCT-116, HCT116, 100 nM, 24 h, % of untreated cells) [%]	IC50 [3] [nM]	GI50 [5] [nM]	DC50 [6] [nM]	SMILES	Emax ([1]; read-out: NCI-H1650 Span (Amax)) [%]	IC50 [4] [nM]	Emax ([4]; read-out: COR-L105 Span (max)) [%]
–	> 316	–	–	16.2	4	> 1670	Cc1ncsc1-c1ccc(CNC(=O)[C@@H]2C[C@@H](O)CN2C(=O)[C@@H](NC(=O)C2(F)CC2)C(C)(C)C)c(OCCCCCCN(C)CCOC23CC4(C)CC(C)(CC(Cn5ncc(-c6ccc(N7CCCc8c7nnc(Nc7nc9ccccc9s7)c8C)nc6C(=O)O)c5C)(C4)C2)C3)c1 [Example 137, 6-[3-(1,3-benzothiazol-2-ylamino)-4-methyl-6,7-dihydro-5H-pyrido[2,3-c]pyridazin-8-yl]-3-[1-[[3-[2-[6-[2-[[[(2S,4R)-1-[(2S)-2-[(1-fluorocyclopropanecarbonyl)amino]-3,3-dimethyl-butanoyl]-4-hydroxy-pyrrolidine-2-carbonyl]amino]methyl]-5-(4-methylthiazol-5-yl)phenoxy]hexyl-methyl-amino]ethoxy]-5,7-dimethyl-1-adamantyl]methyl]-5-methyl-pyrazol-4-yl]pyridine-2-carboxylic acid]	–	–	–
–	0.397	–	–	3.52	7	3	Cc1ncsc1-c1ccc(CNC(=O)[C@@H]2C[C@@H](O)CN2C(=O)[C@@H](NC(=O)C2(F)CC2)C(C)(C)C)c(OCCCCCCCCCCCCN(C)CCOC23CC4(C)CC(C)(CC(Cn5ncc(-c6ccc(N7CCCc8c7nnc(Nc7nc9ccccc9s7)c8C)nc6C(=O)O)c5C)(C4)C2)C3)c1 [Example 139, 6-[3-(1,3-benzothiazol-2-ylamino)-4-methyl-6,7-dihydro-5H-pyrido[2,3-c]pyridazin-8-yl]-3-[1-[[3-[2-[12-[2-[[[(2S,4R)-1-[(2S)-2-[(1-fluorocyclopropanecarbonyl)amino]-3,3-dimethyl-butanoyl]-4-hydroxy-pyrrolidine-2-carbonyl]amino]methyl]-5-(4-methylthiazol-5-yl)phenoxy]dodecyl-methyl-amino]ethoxy]-5,7-dimethyl-1-adamantyl]methyl]-5-methyl-pyrazol-4-yl]pyridine-2-carboxylic acid]	–	–	–
